We go through 8 compounds from patent US20250353891A1 (MEDIMMUNE LIMITED, priority 2022, published 2025).

Read-outs that look alike come from different tables or passages of the source. Starred links: 1 amine or outer side, 2 acyl side, 3 side chain; linkers in the order of their positions; H or OH if unused. Non-standard residues stand in square brackets, D forms with d. Residues, ends and D or L forms follow the SMILES beside them. Groups on a side chain read outwards from the residue. *: point of attachment. C18 diacid = O=C(O)CCCCCCCCCCCCCCCCC(=O)*; Dip = N[C@H](C(=O)O)C(c1ccccc1)c1ccccc1; γGlu = O=C(O)[C@H](CCC(=O)[*:2])N[*:1]; αMeF = C[C@](N)(Cc1ccccc1)C(=O)O; AEEA = NCCOCCOCC(=O)O; Aib = CC(C)(N)C(=O)O

In test [1] the target is human GLP-1 receptor (hGLP-1R) (Homo sapiens, UniProt P43220). Kind of test: cAMP production (HTRF) in CHO cells expressing hGLP-1R. The test is classed as cell-based. Set-up: expressed in transfected cells. The conditions noted are these: for % Relative Potency Ratio: % GLP-1R activity relative to GLP-1 / % GlucR activity relative to glucagon. Summed up:
(§1)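 Read-out: HTRF cAMP (anti-cAMP cryptate donor, cAMP-d2 acceptor in conjugate/lysis buffer), converted to % Delta F and fitted by 4-parameter logistic for EC50. Cell densities were 1×10^5 cells/mL (hGLP-1R) or 2×10^5 cells/mL (hGCGR). Stimulation lasted 30 min at room temperature.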
(In general: cAMP levels reflect the balance of adenylyl cyclase and phosphodiesterase activity.)

For test [2], the target named is human glucagon receptor (hGCGR) (Homo sapiens, UniProt P47871). Kind of test: cAMP production (HTRF) in CHO cells expressing hGCGR. Set-up: expressed in transfected cells. The note with it: geometric mean. The test is classed as cell-based. Summed up:
as §1

The mark [3] stands for this setting: Table 7, peptides modified at position 20, cAMP in CHO hGLP-1R cells, geometric mean, read-out: hGLP-1R EC50.
[4] abbreviates: Table 7, peptides modified at position 20, cAMP in CHO hGCGR cells, read-out: hGluc-R EC50.
Where [5] appears, read: cAMP, CHO cells, 0.1% BSA, geometric mean, read-out: hGLP-1R EC50.
Where [6] appears, read: cAMP, CHO cells, 0.1% BSA, read-out: hGluc-R EC50.
The mark [7] stands for this setting: hGluc-R EC50 (pM), cAMP, CHO cells, 0.1% BSA.

human GLP-1 receptor (hGLP-1R), sequence (P43220 24-463): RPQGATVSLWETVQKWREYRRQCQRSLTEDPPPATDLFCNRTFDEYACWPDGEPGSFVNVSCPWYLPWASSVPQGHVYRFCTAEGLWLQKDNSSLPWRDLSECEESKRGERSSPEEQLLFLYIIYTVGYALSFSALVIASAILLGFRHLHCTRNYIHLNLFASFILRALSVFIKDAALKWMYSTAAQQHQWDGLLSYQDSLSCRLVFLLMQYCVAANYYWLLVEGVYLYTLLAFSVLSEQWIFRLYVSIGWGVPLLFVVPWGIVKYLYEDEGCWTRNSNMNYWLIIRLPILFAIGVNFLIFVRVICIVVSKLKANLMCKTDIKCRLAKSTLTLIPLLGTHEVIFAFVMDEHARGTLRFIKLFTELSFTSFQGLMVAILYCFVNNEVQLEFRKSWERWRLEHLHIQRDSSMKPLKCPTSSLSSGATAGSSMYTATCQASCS
human glucagon receptor (hGCGR), sequence (P47871 26-477): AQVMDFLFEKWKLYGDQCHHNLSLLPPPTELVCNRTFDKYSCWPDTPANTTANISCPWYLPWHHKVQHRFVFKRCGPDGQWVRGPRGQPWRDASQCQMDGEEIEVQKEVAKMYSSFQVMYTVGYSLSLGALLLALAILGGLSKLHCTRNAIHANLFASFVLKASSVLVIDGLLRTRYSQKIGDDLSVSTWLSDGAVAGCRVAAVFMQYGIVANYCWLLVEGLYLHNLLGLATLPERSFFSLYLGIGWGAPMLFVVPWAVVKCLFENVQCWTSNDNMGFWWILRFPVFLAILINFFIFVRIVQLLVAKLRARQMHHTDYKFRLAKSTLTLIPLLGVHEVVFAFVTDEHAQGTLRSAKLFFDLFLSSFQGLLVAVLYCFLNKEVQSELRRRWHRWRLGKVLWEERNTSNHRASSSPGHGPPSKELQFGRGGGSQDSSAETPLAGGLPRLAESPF

`CC(C)C[C@H](NC(=O)[C@H](Cc1c[nH]c2ccccc12)NC(=O)[C@H](CCC(N)=O)NC(=O)[C@@H](NC(=O)[C@H](Cc1ccccc1)NC(=O)[C@H](CC(=O)O)NC(=O)[C@H](CCCCNC(=O)CC[C@H](NC(=O)CCCCCCCCCCCCCCCCC(=O)O)C(=O)O)NC(=O)[C@H](C)NC(=O)[C@H](CCCNC(=N)N)NC(=O)[C@H](CCCNC(=N)N)NC(=O)[C@H](CO)NC(=O)[C@H](CC(=O)O)NC(=O)[C@H](CC(C)C)NC(=O)[C@](C)(Cc1ccccc1)NC(=O)[C@H](CCCCN)NC(=O)[C@H](CO)NC(=O)[C@H](Cc1ccc(O)cc1)NC(=O)[C@H](CC(=O)O)NC(=O)[C@H](CO)NC(=O)[C@@H](NC(=O)[C@H](Cc1ccccc1)NC(=O)[C@@H](NC(=O)CNC(=O)[C@H](CCC(N)=O)NC(=O)C(C)(C)NC(=O)[C@@H](N)Cc1c[nH]cn1)[C@@H](C)O)[C@@H](C)O)C(C)C)C(=O)N[C@@H](CC(C)C)C(=O)NC(C)(C)C(=O)N[C@@H](CCC(=O)O)C(=O)O` [Peptide 339] (H-H[Aib]QGTFTSDYSK[αMeF]LDSRRAK([γGlu-C18 diacid])DFVQWLL[Aib]E-OH; N-terminus assumed): the concentration for a half-maximal effect (EC50) in test [1] (setting [3]) was 312 pM; in test [2] (setting [4]), 70.3 pM. In test [1] (Table 7), the “% Relative Potency Ratio” value is on record as 0.4.
As for `CC(C)C[C@H](NC(=O)[C@H](Cc1c[nH]c2ccccc12)NC(=O)[C@H](CCC(N)=O)NC(=O)[C@@H](NC(=O)[C@H](Cc1ccccc1)NC(=O)[C@H](CC(=O)O)NC(=O)[C@H](CCCCNC(=O)CC[C@H](NC(=O)CCCCCCCCCCCCCCCCC(=O)O)C(=O)O)NC(=O)[C@H](C)NC(=O)[C@H](CCCNC(=N)N)NC(=O)[C@H](CCCNC(=N)N)NC(=O)[C@H](CO)NC(=O)[C@H](CC(=O)O)NC(=O)[C@H](CC(C)C)NC(=O)[C@](C)(Cc1ccccc1)NC(=O)[C@H](CCCCN)NC(=O)[C@H](CO)NC(=O)[C@H](Cc1ccc(O)cc1)NC(=O)[C@H](CC(=O)O)NC(=O)[C@H](CO)NC(=O)[C@@H](NC(=O)[C@H](Cc1ccccc1)NC(=O)[C@@H](NC(=O)CNC(=O)[C@H](CCC(N)=O)NC(=O)C(C)(C)NC(=O)[C@@H](N)Cc1c[nH]cn1)[C@@H](C)O)[C@@H](C)O)C(C)C)C(=O)N[C@@H](CC(C)C)C(=O)NC(C)(C)C(=O)N[C@H](C(=O)N[C@@H](CCC(=O)O)C(=O)O)[C@@H](C)O` [Peptide 340], the half-maximal effective concentration (EC50) in test [1] (setting [3]) was determined as 312 pM; in test [2] (setting [4]), 94.7 pM. In test [1] (Table 7), the “% Relative Potency Ratio” value was determined as 0.6.
On to `CC(C)C[C@H](NC(=O)[C@H](Cc1c[nH]c2ccccc12)NC(=O)[C@H](CCC(N)=O)NC(=O)[C@@H](NC(=O)[C@H](Cc1ccccc1)NC(=O)[C@H](CC(=O)O)NC(=O)[C@H](CCCCNC(=O)CC[C@H](NC(=O)CCCCCCCCCCCCCCCCC(=O)O)C(=O)O)NC(=O)[C@H](C)NC(=O)[C@H](CCCNC(=N)N)NC(=O)[C@H](CCCNC(=N)N)NC(=O)[C@H](CO)NC(=O)[C@H](CC(=O)O)NC(=O)[C@H](CC(C)C)NC(=O)[C@](C)(Cc1ccccc1)NC(=O)[C@H](CCCCN)NC(=O)[C@H](CO)NC(=O)[C@H](Cc1ccc(O)cc1)NC(=O)[C@H](CC(=O)O)NC(=O)[C@H](CO)NC(=O)[C@@H](NC(=O)[C@H](Cc1ccccc1)NC(=O)[C@@H](NC(=O)CNC(=O)[C@H](CCC(N)=O)NC(=O)C(C)(C)NC(=O)[C@@H](N)Cc1c[nH]cn1)[C@@H](C)O)[C@@H](C)O)C(C)C)C(=O)N[C@@H](CC(C)C)C(=O)N[C@@H](CCC(=O)O)C(=O)NC(C)(C)C(=O)N[C@H](C(=O)O)[C@@H](C)O` [Peptide 341], for which the EC50 in test [1] (setting [3]) amounted to 363 pM; in test [2] (setting [4]), 72.8 pM. For the same compound, in test [1] (Table 7), the “% Relative Potency Ratio” value was 0.4.
On the same counts, the results for `CC[C@H](C)[C@H](NC(=O)[C@H](Cc1c[nH]c2ccccc12)NC(=O)[C@H](CCC(N)=O)NC(=O)[C@@H](NC(=O)[C@H](Cc1ccccc1)NC(=O)[C@H](CC(=O)O)NC(=O)[C@H](CCCCNC(=O)CC[C@H](NC(=O)CCCCCCCCCCCCCCCCC(=O)O)C(=O)O)NC(=O)[C@H](C)NC(=O)[C@H](C)NC(=O)[C@H](CCCNC(=N)N)NC(=O)[C@H](CO)NC(=O)[C@H](CC(=O)O)NC(=O)[C@H](CC(C)C)NC(=O)[C@](C)(Cc1ccccc1)NC(=O)[C@H](CCCCN)NC(=O)[C@H](CO)NC(=O)[C@@H](NC(=O)[C@H](CC(=O)O)NC(=O)[C@H](CO)NC(=O)[C@@H](NC(=O)[C@H](Cc1ccccc1)NC(=O)[C@@H](NC(=O)CNC(=O)[C@H](CCC(N)=O)NC(=O)C(C)(C)NC(=O)[C@@H](N)Cc1c[nH]cn1)[C@@H](C)O)[C@@H](C)O)C(C)C)C(C)C)C(=O)N[C@@H](C)C(=O)N[C@@H](CC(N)=O)C(=O)N[C@H](C(=O)O)[C@@H](C)O` [Peptide 342] are 220 pM, 4830 pM and 43.4.
In the case of `CC[C@H](C)[C@H](NC(=O)[C@H](Cc1c[nH]c2ccccc12)NC(=O)[C@H](CCCCNC(=O)CC[C@H](NC(=O)CCCCCCCCCCCCCCCCC(=O)O)C(=O)O)NC(=O)[C@@H](NC(=O)[C@H](Cc1ccccc1)NC(=O)[C@H](CC(=O)O)NC(=O)[C@H](CCC(N)=O)NC(=O)[C@H](C)NC(=O)[C@H](C)NC(=O)[C@H](CCCNC(=N)N)NC(=O)[C@H](CO)NC(=O)[C@H](CC(=O)O)NC(=O)[C@H](CC(C)C)NC(=O)[C@@H](NC(=O)[C@H](CCCCN)NC(=O)[C@H](CO)NC(=O)[C@@H](NC(=O)[C@H](CC(=O)O)NC(=O)[C@H](CO)NC(=O)[C@@H](NC(=O)[C@H](Cc1ccccc1)NC(=O)[C@H](CO)NC(=O)CNC(=O)[C@H](CCC(N)=O)NC(=O)C(C)(C)NC(=O)[C@@H](N)Cc1c[nH]cn1)[C@@H](C)O)C(C)C)C(c1ccccc1)c1ccccc1)C(C)C)C(=O)N[C@@H](C)C(=O)N[C@@H](CC(N)=O)C(=O)N[C@H](C(N)=O)[C@@H](C)O` [Peptide 343] (H-H[Aib]QGSFTSDVSK[Dip]LDSRAAQDFVK([γGlu-C18 diacid])WIANT-NH2; N-terminus assumed), the “% Relative Potency Ratio” value in test [1] turned out to be 4.2. The concentration for a half-maximal effect (EC50) in test [1] (setting [5]) is 58.6 pM; in test [2] (setting [6]), 126 pM.
For the compound `CC[C@H](C)[C@H](NC(=O)C(C)(C)NC(=O)[C@H](CCCCNC(=O)COCCOCCNC(=O)COCCOCCNC(=O)CC[C@H](NC(=O)CCCCCCCCCCCCCCCCC(=O)O)C(=O)O)NC(=O)[C@@H](NC(=O)[C@](C)(Cc1ccccc1)NC(=O)[C@H](CC(=O)O)NC(=O)[C@H](CCC(N)=O)NC(=O)[C@H](C)NC(=O)[C@H](C)NC(=O)[C@H](CCCNC(=N)N)NC(=O)[C@H](CO)NC(=O)[C@H](CC(=O)O)NC(=O)[C@H](CC(C)C)NC(=O)C(C)(C)NC(=O)[C@H](CCCCN)NC(=O)[C@H](CO)NC(=O)[C@@H](NC(=O)[C@H](CC(=O)O)NC(=O)[C@H](CO)NC(=O)[C@@H](NC(=O)[C@](C)(Cc1ccccc1)NC(=O)[C@H](CO)NC(=O)CNC(=O)[C@H](CCC(N)=O)NC(=O)[C@H](CO)NC(=O)[C@@H](N)Cc1c[nH]cn1)[C@@H](C)O)C(C)C)C(C)C)C(=O)N[C@@H](C)C(=O)N[C@@H](CC(N)=O)C(N)=O` [Peptide 344] (H-HSQGS[αMeF]TSDVSK[Aib]LDSRAAQD[αMeF]VK([AEEA-AEEA-γGlu-C18 diacid])[Aib]IAN-NH2; N-terminus assumed), the results for the EC50 in test [1] (setting [5]) and in test [2] (setting [6]) were 135 pM and > 26900 pM, respectively.
`CC[C@H](C)[C@H](NC(=O)[C@H](Cc1c[nH]c2ccccc12)NC(=O)[C@H](CCCCNC(=O)CC[C@H](NC(=O)CCCCCCCCCCCCCCCCCCC(=O)O)C(=O)O)NC(=O)[C@@H](NC(=O)[C@H](Cc1ccccc1)NC(=O)[C@H](CC(=O)O)NC(=O)[C@H](CCC(N)=O)NC(=O)[C@H](C)NC(=O)[C@H](C)NC(=O)[C@H](CCC(N)=O)NC(=O)[C@H](CO)NC(=O)[C@H](CC(=O)O)NC(=O)[C@H](CC(C)C)NC(=O)[C@](C)(Cc1ccccc1)NC(=O)[C@H](CCCCN)NC(=O)[C@H](CO)NC(=O)[C@@H](NC(=O)[C@H](CC(=O)O)NC(=O)[C@H](CO)NC(=O)[C@@H](NC(=O)[C@H](Cc1ccccc1)NC(=O)[C@@H](NC(=O)CNC(=O)[C@H](Cc1c[nH]cn1)NC(=O)C(C)(C)NC(=O)[C@@H](N)Cc1c[nH]cn1)[C@@H](C)O)[C@@H](C)O)C(C)C)C(C)C)C(=O)N[C@@H](C)C(=O)N[C@@H](CC(N)=O)C(=O)N[C@H](C(N)=O)[C@@H](C)O` [Peptide 347]: in test [1], the “% Relative Potency Ratio” value is recorded as 0.2. Besides, the EC50 in test [1] (hGLP-1R EC50 (pM)) was found to be 4970 pM; in test [2] (setting [7]), 597 pM.
For the compound `CC[C@H](C)[C@H](NC(=O)[C@H](Cc1c[nH]c2ccccc12)NC(=O)[C@H](CCCCNC(=O)COCCOCCNC(=O)COCCOCCNC(=O)CC[C@H](NC(=O)CCCCCCCCCCCCCCCCC(=O)O)C(=O)O)NC(=O)[C@@H](NC(=O)[C@H](Cc1ccccc1)NC(=O)[C@H](CC(=O)O)NC(=O)[C@H](CCC(N)=O)NC(=O)[C@H](C)NC(=O)[C@H](C)NC(=O)[C@H](CCC(N)=O)NC(=O)[C@H](CO)NC(=O)[C@H](CC(=O)O)NC(=O)[C@H](CC(C)C)NC(=O)[C@](C)(Cc1ccccc1)NC(=O)[C@H](CCCCN)NC(=O)[C@H](CO)NC(=O)[C@@H](NC(=O)[C@H](CC(=O)O)NC(=O)[C@H](CO)NC(=O)[C@@H](NC(=O)[C@](C)(Cc1ccccc1)NC(=O)[C@H](CO)NC(=O)CNC(=O)[C@H](CCC(N)=O)NC(=O)C(C)(C)NC(=O)[C@@H](N)Cc1c[nH]cn1)[C@@H](C)O)C(C)C)C(C)C)C(=O)N[C@@H](C)C(=O)N[C@@H](CC(N)=O)C(=O)N[C@H](C(N)=O)[C@@H](C)O` [Peptide 348] (H-H[Aib]QGS[αMeF]TSDVSK[αMeF]LDSQAAQDFVK([AEEA-AEEA-γGlu-C18 diacid])WIANT-NH2), the EC50 in test [1] (hGLP-1R EC50 (pM)) is 70.1 pM; in test [2] (setting [7]) it was 4110 pM.

The EC50 is the concentration that produces a half-maximal response.
